Results published in ChEMBL document CHEMBL4610045, “Selective acetylcholinesterase inhibitors derived from muscle relaxant dantrolene” (Bioorg Med Chem Lett, 2020).
Where a name gives a salt, the structure may show the parent alone. Active and inactive are the calls of the source. The rule behind the calls is not given here.

How the values were obtained:
[1] = molecular target: T1, Cholinesterase (Homo sapiens, UniProt P06276); experiment: (§1) Inhibition of BuChE (unknown origin) at 1 uM relative to control; settings: 1 µM
[2] = molecular target: T2, Acetylcholinesterase (Homo sapiens, UniProt P22303); experiment: Inhibition of AChE (unknown origin) using acetylthiocholine iodide as substrate by Ellman's method
[3] = molecular target: T2, Acetylcholinesterase; experiment: Inhibition of AChE (unknown origin) at 1 uM using acetylthiocholine iodide as substrate by Ellman's method relative to control
[4] = molecular target: T3, BuChE (butyrylcholinesterase) (Homo sapiens, UniProt P06276); experiment: Inhibition of BuChE (unknown origin) at 20 nM relative to control
[5] = molecular target: T3, BuChE (butyrylcholinesterase); experiment: as §1
[6] = molecular target: T2, Acetylcholinesterase; experiment: Non-competitive inhibition of AChE (unknown origin) at 100 to 200 nM using acetylthiocholine as substrate by Ellman's method based Lineweaver-Burk plot analysis
[7] = molecular target: T1, Cholinesterase; experiment: Inhibition of BuChE (unknown origin)
[8] = organism: Homo sapiens; experiment: Selectivity index, ratio of IC50 for BuChE (unknown origin) to IC50 for AChE (unknown origin) using acetylthiocholine iodide as substrate

T3 sequence (P06276 whole entry): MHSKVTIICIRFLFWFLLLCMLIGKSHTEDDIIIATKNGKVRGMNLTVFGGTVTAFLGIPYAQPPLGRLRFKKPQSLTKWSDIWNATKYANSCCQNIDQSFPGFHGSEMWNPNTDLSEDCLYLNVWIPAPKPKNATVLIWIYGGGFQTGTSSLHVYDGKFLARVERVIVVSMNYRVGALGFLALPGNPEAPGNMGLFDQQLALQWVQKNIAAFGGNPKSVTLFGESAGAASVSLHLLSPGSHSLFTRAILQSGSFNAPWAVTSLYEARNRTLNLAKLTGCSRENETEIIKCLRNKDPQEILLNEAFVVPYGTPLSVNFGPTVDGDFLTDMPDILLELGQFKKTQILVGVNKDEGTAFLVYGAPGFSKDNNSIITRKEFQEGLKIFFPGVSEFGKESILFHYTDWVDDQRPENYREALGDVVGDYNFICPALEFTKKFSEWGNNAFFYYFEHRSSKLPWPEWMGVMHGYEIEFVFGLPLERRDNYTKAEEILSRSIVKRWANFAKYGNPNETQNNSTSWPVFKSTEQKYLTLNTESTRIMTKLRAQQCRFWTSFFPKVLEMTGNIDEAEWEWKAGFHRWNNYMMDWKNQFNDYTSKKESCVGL
T1 sequence (P06276 whole entry): as above
T2 sequence (P22303 whole entry): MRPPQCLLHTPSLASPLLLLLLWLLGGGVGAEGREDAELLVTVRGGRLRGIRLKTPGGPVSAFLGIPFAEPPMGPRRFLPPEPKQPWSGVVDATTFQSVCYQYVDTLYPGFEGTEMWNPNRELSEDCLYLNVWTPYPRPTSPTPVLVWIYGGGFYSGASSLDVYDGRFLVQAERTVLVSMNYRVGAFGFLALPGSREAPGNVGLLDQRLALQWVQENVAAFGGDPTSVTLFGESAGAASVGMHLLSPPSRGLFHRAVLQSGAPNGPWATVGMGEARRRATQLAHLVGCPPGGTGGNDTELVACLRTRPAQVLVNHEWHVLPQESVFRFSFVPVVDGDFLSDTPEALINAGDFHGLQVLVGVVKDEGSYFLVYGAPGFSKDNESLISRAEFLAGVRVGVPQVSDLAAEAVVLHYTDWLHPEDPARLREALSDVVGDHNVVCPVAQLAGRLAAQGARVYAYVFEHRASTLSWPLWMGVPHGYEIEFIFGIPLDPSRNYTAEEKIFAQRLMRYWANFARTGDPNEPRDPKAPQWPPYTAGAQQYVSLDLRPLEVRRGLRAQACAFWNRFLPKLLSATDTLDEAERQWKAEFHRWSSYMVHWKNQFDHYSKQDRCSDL

O=C1CN(/N=C/c2ccc(-c3ccc([N+](=O)[O-])cc3)o2)C(=O)N1CCN1CCN(Cc2ccccc2)CC1
inhibition (INH) [1]: Not Active
IC50 [2]: 201 nM
inhibition [3]: 67.9%

Nc1c2c(nc3ccccc13)CCCC2 [TACRINE HYDROCHLORIDE]
inhibition at 0.02 µM [4]: 64.5%

COc1ccc(-c2ccc(/C=N/N3CC(=O)N(CCC4CCN(Cc5ccccc5)CC4)C3=O)o2)cc1
inhibition at 1 µM [5]: 4.6%
IC50 [2]: 108 nM

O=C1CN(/N=C/c2ccc(-c3ccc([N+](=O)[O-])cc3)o2)C(=O)N1CCC1CCN(Cc2ccccc2)CC1
inhibition (INH) [1]: Not Active
IC50 [2]: 46.4 nM
inhibition [3]: 91.3%

O=C1CN(/N=C/c2ccc(-c3ccccc3[N+](=O)[O-])o2)C(=O)N1CCC1CCN(Cc2ccccc2)CC1
inhibition at 1 µM [5]: 14.6%
inhibition [6]: Active
IC50 [2]: 34.2 nM
IC50 [7]: 4.47 µM
Ratio IC50 [8]: 130

O=C1CN(/N=C/c2ccc(-c3cccc([N+](=O)[O-])c3)o2)C(=O)N1CCC1CCN(Cc2ccccc2)CC1
inhibition (INH) [1]: Not Active
IC50 [2]: 290 nM

COc1ccccc1-c1ccc(/C=N/N2CC(=O)N(CCC3CCN(Cc4ccccc4)CC3)C2=O)o1
inhibition at 1 µM [5]: 1.6%
IC50 [2]: 90.4 nM

O=C1CN(/N=C/c2ccc(-c3ccc([N+](=O)[O-])cc3)o2)C(=O)N1
inhibition [3]: inactive

O=C1CN(/N=C/c2ccc(-c3ccc([N+](=O)[O-])cc3)o2)C(=O)N1CC1CCN(Cc2ccccc2)CC1
inhibition [3]: inactive

COc1cccc(-c2ccc(/C=N/N3CC(=O)N(CCC4CCN(Cc5ccccc5)CC4)C3=O)o2)c1
inhibition at 1 µM [5]: 3.8%
IC50 [2]: 47 nM
